From US20080241263A1, “Oral and/or Topical Compositions Comprising Prebiotics and Sterols” (priority 2004, published 2008) come the findings set out here.

The subject of one test is Lactobacterium. The test is described as follows: Stimulation of growth: enumeration of lactobacilli in vitro in human faecal homogenate / WC broth. Type of test: cell-based, Lactobacillus spp. As to conditions: incubated up to 24 hours. How it is done:
(§1) The stimulation of growth of micro-organisms has been studied by enumerating bifidobacterium and lactobacilli in vitro in the presence of various test substances. More specifically, aliquots (1 mL) of human faecal homogenates (10 g per 100 mL diluent) were added to diluted WC broth (diluted 50:50 with 0.05M phosphate buffer) to which were added the test mixtures and a lactobacillus or bifidobacterium strain. For each of the combinations, parallel tubes were prepared with one set being inoculated with Bifidobacterium spp or Lactobacillus spp. All mixtures were then incubated for up to 24 hours and bacterial numbers enumerated.

A further test has as its system Bifidobacterium. The test is described as follows: Stimulation of growth: enumeration of bifidobacterium in vitro in human faecal homogenate / WC broth. Type of test: cell-based, Bifidobacterium spp. The conditions noted are these: incubated up to 24 hours. How it is done:
as §1

Take `OC[C@H]1O[C@@H](O[C@H]2[C@H](O)[C@@H](O)[C@@H](O[C@]3(CO)O[C@H](CO)[C@@H](O)[C@@H]3O)O[C@@H]2CO)[C@H](O)[C@@H](O)[C@H]1O` [C2, Lactosucrose]: the entries for the “Bacterial numbers (CFU/ml)” value in the test with Lactobacterium (1% test substance/mixture) and with Bifidobacterium (1% test substance/mixture) were 1.1 × 10^6 CFU/ml and 1.1 × 10^7 CFU/ml, respectively.
Take `CC[C@H](CC[C@@H](C)[C@H]1CC[C@H]2[C@@H]3CC=C4C[C@@H](O)CC[C@]4(C)[C@H]3CC[C@]12C)C(C)C` [C5, β-Sitosterol]: the entries for the “Bacterial numbers (CFU/ml)” value in the test with Lactobacterium (1% test substance) and in the test on Bifidobacterium (1% test substance) were 4.4 × 10^5 CFU/ml and 3.3 × 10^6 CFU/ml, respectively.
`CC[C@H](CC[C@@H](C)[C@H]1CC[C@H]2[C@@H]3CC[C@H]4C[C@@H](O)CC[C@]4(C)[C@H]3CC[C@]12C)C(C)C` [C6, β-Sitostanol]: the results for the “Bacterial numbers (CFU/ml)” value with Lactobacterium (1% test substance) and in the test with Bifidobacterium (1% test substance) were 4.4 × 10^5 CFU/ml and 2.4 × 10^6 CFU/ml, respectively.
Turning to `CCCCCCCCCCCCCCCC(=O)O[C@H]1CC[C@@]2(C)C(=CC[C@H]3[C@@H]4CC[C@H]([C@H](C)CC[C@@H](CC)C(C)C)[C@@]4(C)CC[C@@H]32)C1` [C7, β-Sitosterolpalmitate], the “Bacterial numbers (CFU/ml)” value with Lactobacterium (1% test substance) is 4.4 × 10^5 CFU/ml; with Bifidobacterium (1% test substance), 2.7 × 10^6 CFU/ml.
On to `CCCCCCCCCCCCCCCCCC(=O)O[C@H]1CC[C@@]2(C)[C@@H](CC[C@@H]3[C@@H]2CC[C@]2(C)[C@@H]([C@H](C)CC[C@@H](CC)C(C)C)CC[C@@H]32)C1` [C8, β-Sitostanolstearate], for which the results for the “Bacterial numbers (CFU/ml)” value in the test with Lactobacterium (1% test substance) and with Bifidobacterium (1% test substance) were 4.5 × 10^5 CFU/ml and 3.2 × 10^6 CFU/ml, respectively.
As for Betaglucan [C4], the “Bacterial numbers (CFU/ml)” value with Lactobacterium (1% test substance/mixture) was 1.1 × 10^6 CFU/ml; in the test on Bifidobacterium (1% test substance/mixture) it was 1.2 × 10^7 CFU/ml.
The corresponding values for Lactolin [C3] are 1.5 × 10^6 CFU/ml and 1.6 × 10^7 CFU/ml.
